In the data set the test system is human colon cancer cell line SW620. Nature of the data set: In vivo anticancer effect, SW620 transplanted nude mice. Set-up: species or system BALB/c nude mice. The procedure:
Female SPF BALB/c nude mice purchased from Charles River, Japan, were used as test animals. They were at 6 weeks and weighed 14-17 g. Before being used for experiments, the test animals were adapted at least one week in a clean animal lab. Temperature of the animal lab was 21±2° C. and humidity was set at 55±5%. Light/dark cycle was automatically regulated as 12/12. The solid feeds for the test animals were radiation sterilized products (Polas International, Seoul, Korea). Drinking water was sterilized by autoclave. Feeds and drinking water were given freely.
For the cancer cell line, human colon cancer cell line SW620 purchased from ATCC, USA and stored at Korean Research Institute of Bioscience and Biotechnology was used. […] On the final day of culture, every cell was collected and counted and the final cell concentration was regulated to 1×10^7 cells/ml by adding saline.
SW620 cancer cells were hypodermically injected in the right armpit in-between the shoulder and the wall of chest by 0.3 ml at the concentration of 3×10^6 cells/mouse. […] Weight changes of the test animals were measured three times per week. Tumor volume was measured 7 times from day 5 to day 20 in every test animal. Precisely, the tumor volume was measured by measuring three dimensions of the tumor using Vernier Caliper and then calculated by the following formula: […]

With `COc1cccc2c1C(=O)c1c(O)c3c(c(O)c1C2=O)C[C@@](O)(C(=O)CO)C[C@@H]3O[C@H]1C[C@H](N)[C@H](O)[C@H](C)O1` [adriamycin], the weight loss (adriamycin administered positive control, p<0.001) was 13.1%. For the setting “positive control, P<0.001”, this compound had a tumor growth inhibition of 58.0%.
